{"source": "patent US8779004B2", "about": "“Stable emulsion formulations” (Amgen, Inc., priority 2006, dated 2014)", "format_in_all_cases": "physicochemical", "key": {"[1]": {"assay": "Long-term storage stability of emulsions (assay, pH, particle size)", "details": "5 mg/mL emulsion", "description": "Calcimimetics emulsions for long-term studies were prepared at 5 mg/mL drug concentration, 5% SBO, 2% egg lecithin, 2% glycerin, 20 mM TRIS buffer at pH 9. The emulsions were packed in glass vials at 20 mL each and stored inverted in stability chambers. At each time-point, 3 vials from each chamber were pulled and analyzed for the calcimimetic concentration, pH and particle size. […] The values for pH dropped over time, with greater magnitude of drop seen at higher temperature."}, "[2]": {"assay": "Effect of pH and buffer type on emulsion stability (pH, particle size before/after one autoclave cycle)", "details": "after one autoclave cycle, 2% egg lecithin", "description": "Tables 6 summarizes the effect of pH and the buffer type on emulsion stability as measured by the particle size. Emulsions were made using 2% egg lecithin, 2.25% glycerin in water for injection. Particle size and pH were measured after one-autoclave cycle. For all emulsions, particle size before autoclaving as represented by D(4,3) was in a range of 0.30 to 0.45 μm. Emulsions were stable at high pH using TRIS and DEA buffer, and at low pH using phosphate buffer over varying concentrations of cinacalcet and soybean oil. Closer to pH 7 using phosphate buffer, increase in particle size was seen after autoclaving.\nParticle size data is reported as D(4,3) before and after one autoclaving cycle."}, "[3]": {"assay": "Solubility of calcimimetics in oil phases (RP-HPLC)", "details": "oil or lipid, thermodynamic from solid", "description": "The solubility measurements of the compounds were prepared by the addition of 1 g of drug substance to two milliliters of oil into a Wheaton 5 mL vial. The headspace was sparged with nitrogen, and enclosed with a West 4405/50 gray Teflon coated stopper and manually sealed by an aluminum overseal. The preparations were repeated again with the oils containing either purified egg or soy lecithin. All labeled vials were shaken at room temperature for eighteen hours on a platform shaker. After eighteen hours, the samples were diluted in mobile phase, and analyzed by the RP-HPLC method. Table 2 summarizes solubility results (expressed in mg/mL) of cinacalcet in various oil phases."}, "[4]": {"assay": "Zeta potential titration of emulsions (droplet charge vs pH)", "details": "cinacalcet/1% EYP/10% SBO emulsion", "description": "Panel A, titration results of 1% EYP/10% SBO in 1 mM dibasic phosphate. Panel B, titration results of cinacalcet/1% EYP/10% SBO in 1 mM dibasic phosphate. Other components of the emulsions include 10% soybean oil, 1% egg lecithin, 2.25% glycerin and water. Panel C, titration results for Compound A. Emulsion composition: SBO 10%, Lecithin 2% at pH 7. Concentration of Compound A was 5 mg/mL for formulation #1 and 1 mg/mL for formulation #2.\nThe zeta potential measurements were made on a Malvern Zetasizer 4 laser-scattering particle electrophoretic analyzer that measures the electrophoretic mobility and zeta potential distribution. Samples were prepared for the zeta potential titration by diluting the emulsion approximately 2500 fold in 1 mM dibasic phosphate pH 9 and titrating the solution with 100 mM phosphoric acid in 0.5 pH unit increments. […] Theoretically, the emulsions are stabilized by this charge, which prevents the droplets from coalescing. […] In contrast, the cinacalcet emulsions achieve charge neutrality in the range of pH 7-7.5."}, "[5]": {"details": "DEA 0.05%, target cinacalcet 1 mg/mL, SBO conc. 10"}, "[6]": {"details": "DEA 0.05%, target cinacalcet 5 mg/mL, SBO conc. 5"}, "[7]": {"details": "DEA 0.05%, target cinacalcet 10 mg/mL, SBO conc. 10"}, "[8]": {"details": "DEA 0.1%, target cinacalcet 5 mg/mL, SBO conc. 5"}, "[9]": {"details": "DEA 0.2%, target cinacalcet 5 mg/mL, SBO conc. 5"}, "[10]": {"details": "DEA 0.3%, target cinacalcet 5 mg/mL, SBO conc. 5"}, "[11]": {"details": "No buffer, target cinacalcet 5 mg/mL, SBO conc. 10"}, "[12]": {"details": "PO4 buffer 15 mM, target cinacalcet 5 mg/mL, SBO conc. 10"}, "[13]": {"details": "TRIS 5 mM, target cinacalcet 1 mg/mL, SBO conc. 10"}, "[14]": {"details": "TRIS 5 mM, target cinacalcet 5 mg/mL, SBO conc. 10"}, "[15]": {"details": "TRIS 5 mM, target cinacalcet 10 mg/mL, SBO conc. 20"}, "[16]": {"details": "TRIS 10 mM, target cinacalcet 5 mg/mL, SBO conc. 5"}, "[17]": {"details": "TRIS 15 mM, target cinacalcet 5 mg/mL, SBO conc. 5"}, "[18]": {"details": "TRIS 20 mM, target cinacalcet 5 mg/mL, SBO conc. 5"}}, "data": [{"smiles": "C[C@@H](NCCCc1cccc(C(F)(F)F)c1)c1cccc2ccccc12", "note": "[Cinacalcet, N-(1-(R)-(1-naphthyl)ethyl]-3-[3-(trifluoromethyl)phenyl]-1-aminopropane]", "values": [{"measurement": "changes in particle size", "setting": "[1]; 2 years at 5° C. and 25° C.", "result": "No significant changes"}, {"measurement": "cinacalcet assay and impurity levels", "setting": "[1]; 2 years at 5° C. and 25° C.", "result": "within specifications"}, {"measurement": "cinacalcet assay and impurity levels", "setting": "[1]; 9 months at 40° C.", "result": "within specifications"}, {"measurement": "changes in particle size", "setting": "[1]; 18 months at 40° C.", "result": "No significant changes"}, {"measurement": "D(4, 3)", "setting": "[2]; [5]", "result": 0.44, "unit": "μm"}, {"measurement": "pH", "setting": "[2]; [5]", "result": 8.81}, {"measurement": "D(4, 3)", "setting": "[2]; [6]", "result": 0.39, "unit": "μm"}, {"measurement": "pH", "setting": "[2]; [6]", "result": 8.77}, {"measurement": "D(4, 3)", "setting": "[2]; [7]", "result": 0.41, "unit": "μm"}, {"measurement": "pH", "setting": "[2]; [7]", "result": 8.82}, {"measurement": "D(4, 3)", "setting": "[2]; [8]", "result": 0.40, "unit": "μm"}, {"measurement": "pH", "setting": "[2]; [8]", "result": 8.95}, {"measurement": "D(4, 3)", "setting": "[2]; [9]", "result": 0.35, "unit": "μm"}, {"measurement": "pH", "setting": "[2]; [9]", "result": 9.13}, {"measurement": "D(4, 3)", "setting": "[2]; [10]", "result": 0.36, "unit": "μm"}, {"measurement": "pH", "setting": "[2]; [10]", "result": 9.12}, {"measurement": "D(4, 3)", "setting": "[2]; [11]", "result": 1.48, "unit": "μm"}, {"measurement": "pH", "setting": "[2]; [11]", "result": 8.45}, {"measurement": "pH", "setting": "[2]; PO4 buffer 10 mM (first of two emulsions), target cinacalcet 5 mg/mL, SBO conc. 5", "result": 6.36}, {"measurement": "pH", "setting": "[2]; PO4 buffer 10 mM (second of two emulsions), target cinacalcet 5 mg/mL, SBO conc. 5", "result": 6.78}, {"measurement": "D(4, 3)", "setting": "[2]; PO4 buffer 10 mM, pH 6.36, target cinacalcet 5 mg/mL, SBO conc. 5", "result": 0.39, "unit": "μm"}, {"measurement": "D(4, 3)", "setting": "[2]; PO4 buffer 10 mM, pH 6.78, target cinacalcet 5 mg/mL, SBO conc. 5", "result": 0.76, "unit": "μm"}, {"measurement": "D(4, 3)", "setting": "[2]; [12]", "result": 1.59, "unit": "μm"}, {"measurement": "pH", "setting": "[2]; [12]", "result": 7.15}, {"measurement": "D(4, 3)", "setting": "[2]; [13]", "result": 0.48, "unit": "μm"}, {"measurement": "pH", "setting": "[2]; [13]", "result": 8.75}, {"measurement": "pH", "setting": "[2]; TRIS 5 mM, target cinacalcet 5 mg/mL, SBO conc. 5", "result": 8.80}, {"measurement": "D(4, 3)", "setting": "[2]; [14]", "result": 0.32, "unit": "μm"}, {"measurement": "pH", "setting": "[2]; [14]", "result": 8.87}, {"measurement": "pH", "setting": "[2]; TRIS 5 mM, target cinacalcet 10 mg/mL, SBO conc. 10", "result": 8.82}, {"measurement": "D(4, 3)", "setting": "[2]; [15]", "result": 0.36, "unit": "μm"}, {"measurement": "pH", "setting": "[2]; [15]", "result": 8.82}, {"measurement": "D(4, 3)", "setting": "[2]; [16]", "result": 0.30, "unit": "μm"}, {"measurement": "pH", "setting": "[2]; [16]", "result": 9.06}, {"measurement": "D(4, 3)", "setting": "[2]; [17]", "result": 0.34, "unit": "μm"}, {"measurement": "pH", "setting": "[2]; [17]", "result": 9.04}, {"measurement": "D(4, 3)", "setting": "[2]; [18]", "result": 0.29, "unit": "μm"}, {"measurement": "pH", "setting": "[2]; [18]", "result": 9.13}, {"measurement": "solubility at 18 h", "setting": "[3]; Long Chain Triglycerides (oil phase) with egg lecithin, Long Chain Triglycerides, Egg lecithin", "result": "> 362", "unit": "mg/mL"}, {"measurement": "solubility at 18 h", "setting": "[3]; Long Chain Triglycerides (oil phase) with soy lecithin, Long Chain Triglycerides, Soy lecithin", "result": "> 304", "unit": "mg/mL"}, {"measurement": "solubility at 18 h", "setting": "[3]; Long Chain Triglycerides (oil phase), Long Chain Triglycerides, no lecithin", "result": "> 340", "unit": "mg/mL"}, {"measurement": "solubility at 18 h", "setting": "[3]; Medium Chain Triglycerides (oil phase) with egg lecithin, Medium Chain Triglycerides, Egg lecithin", "result": "> 349", "unit": "mg/mL"}, {"measurement": "solubility at 18 h", "setting": "[3]; Medium Chain Triglycerides (oil phase) with soy lecithin, Medium Chain Triglycerides, Soy lecithin", "result": "> 327", "unit": "mg/mL"}, {"measurement": "solubility at 18 h", "setting": "[3]; Medium Chain Triglycerides (oil phase), Medium Chain Triglycerides, no lecithin", "result": "> 341", "unit": "mg/mL"}, {"measurement": "solubility at 18 h", "setting": "[3]; Structured Triglycerides (oil phase) with egg lecithin, Structured Triglycerides, Egg lecithin", "result": "> 339", "unit": "mg/mL"}, {"measurement": "solubility at 18 h", "setting": "[3]; Structured Triglycerides (oil phase) with soy lecithin, Structured Triglycerides, Soy lecithin", "result": "> 317", "unit": "mg/mL"}, {"measurement": "solubility at 18 h", "setting": "[3]; Structured Triglycerides (oil phase), Structured Triglycerides, no lecithin", "result": "> 368", "unit": "mg/mL"}, {"measurement": "droplet charge of emulsion", "setting": "[4]; pH of about 9, 1 mM dibasic phosphate", "result": "net negative charge"}, {"measurement": "pH range in which emulsion achieves charge neutrality", "setting": "[4]; titration in 1 mM dibasic phosphate", "result": "7-7.5"}]}]}
